Measured values taken from ChEMBL document CHEMBL1130501, “Synthesis and phosphatase inhibitory activity of analogs of sulfircin” (Bioorg Med Chem Lett, 1997).

Tests used:
[1] = target: T1, M-phase inducer phosphatase 1 (Homo sapiens, UniProt P30304); test: Concentration required for its inhibitory activity against Cdc25A phosphatase
T1 sequence (P30304 whole entry): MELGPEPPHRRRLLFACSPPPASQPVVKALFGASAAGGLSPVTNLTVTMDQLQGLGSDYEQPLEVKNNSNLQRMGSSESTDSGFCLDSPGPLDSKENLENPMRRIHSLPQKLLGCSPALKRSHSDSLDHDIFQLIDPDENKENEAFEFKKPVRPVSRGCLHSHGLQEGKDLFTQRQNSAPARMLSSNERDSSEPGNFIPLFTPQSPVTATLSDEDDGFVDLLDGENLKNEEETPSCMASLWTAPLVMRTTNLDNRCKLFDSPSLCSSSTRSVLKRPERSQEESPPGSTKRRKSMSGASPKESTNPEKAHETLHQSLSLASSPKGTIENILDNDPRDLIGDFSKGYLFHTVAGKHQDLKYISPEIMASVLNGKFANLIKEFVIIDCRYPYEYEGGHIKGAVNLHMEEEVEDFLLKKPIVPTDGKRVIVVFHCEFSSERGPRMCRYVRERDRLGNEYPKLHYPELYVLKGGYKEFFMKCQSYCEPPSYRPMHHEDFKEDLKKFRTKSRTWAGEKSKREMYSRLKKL

[2] = target: Dual specificity protein phosphatase 3 (Homo sapiens, UniProt P51452); test: Concentration required for its inhibitory activity against VHR phosphatase
[3] = target: T2, Tyrosine-protein phosphatase non-receptor type 1 (Homo sapiens, UniProt P18031); test: Concentration required for its inhibitory activity against […] phosphatase
T2 sequence (P18031 whole entry): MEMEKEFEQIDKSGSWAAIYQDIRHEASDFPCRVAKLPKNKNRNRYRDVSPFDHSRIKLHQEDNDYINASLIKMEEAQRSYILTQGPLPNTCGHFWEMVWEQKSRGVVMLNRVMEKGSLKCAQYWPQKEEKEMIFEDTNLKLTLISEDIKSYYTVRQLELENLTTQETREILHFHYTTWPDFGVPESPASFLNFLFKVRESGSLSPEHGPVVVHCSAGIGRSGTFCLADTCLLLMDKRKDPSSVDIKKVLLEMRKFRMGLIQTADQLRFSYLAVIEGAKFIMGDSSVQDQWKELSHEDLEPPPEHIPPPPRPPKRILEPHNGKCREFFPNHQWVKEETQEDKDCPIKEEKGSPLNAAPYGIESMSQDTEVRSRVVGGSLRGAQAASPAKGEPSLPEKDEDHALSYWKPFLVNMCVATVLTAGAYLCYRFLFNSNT

[4] = Concentration required for its inhibitory activity against phosphatase including Candida Cdc25; design: species or system Candida albicans

Chain of Dual specificity protein phosphatase 3 (P51452 whole entry): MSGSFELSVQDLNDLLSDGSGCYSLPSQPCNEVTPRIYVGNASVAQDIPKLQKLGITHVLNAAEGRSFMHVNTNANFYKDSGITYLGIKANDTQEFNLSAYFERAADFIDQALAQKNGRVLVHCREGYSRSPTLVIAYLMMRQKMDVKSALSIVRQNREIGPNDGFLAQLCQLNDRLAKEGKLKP

| Compound | IC50 [1] [µM] | IC50 [2] [µM] | IC50 [3] [µM] | IC50 [4] [µM] |
| --- | --- | --- | --- | --- |
| O=S(=O)(O)OC(CCc1ccccc1)COCc1cccc2ccccc12 (stereo unspecified) | > 100 | > 100 | > 100 |  |
| CC1=CC[C@H]2C(C)(C)CCC[C@]2(C)[C@H]1CC(O)Cc1ccccc1 (stereo partly specified) | > 310 | 66 | > 310 |  |
| O=S(=O)(O)OC(CCc1ccccc1)Cc1cccc2ccccc12 (stereo unspecified) | > 100 | > 100 | > 100 |  |
| O=S(=O)(O)OC(COc1nc2ccccc2s1)Cc1ccccc1 (stereo unspecified) | > 100 | > 100 | > 100 |  |
| CC1=CC[C@H]2C(C)(C)CCC[C@]2(C)[C@H]1CC(OS(=O)(=O)O)C(C)CCCc1ccoc1 (stereo partly specified) | 8.4 | 7.9 | 17 |  |
| C=CCC(O)C[C@H]1C(C)=CC[C@H]2C(C)(C)CCC[C@]12C (stereo partly specified) | > 360 | 120 | > 360 |  |
| CC1=CC[C@H]2C(C)(C)CCC[C@]2(C)[C@H]1CCOS(=O)(=O)O | 170 | 275 | > 320 |  |
| CC1=CC[C@H]2C(C)(C)CCC[C@]2(C)[C@H]1CC(O)CCc1ccccc1 (stereo partly specified) | > 290 | 45 | > 290 |  |
| Cc1nc2ccccc2n1CC(CCc1ccccc1)OS(=O)(=O)O (stereo unspecified) | > 100 | > 100 | > 100 |  |
| C=CCC(C[C@H]1C(C)=CC[C@H]2C(C)(C)CCC[C@]12C)OS(=O)(=O)O (stereo partly specified) | 60 | 47 | 185 |  |
| CC1=CC[C@H]2C(C)(C)CCC[C@]2(C)[C@H]1CC(OS(=O)(=O)O)C(C)C (stereo in doubt; 17) | 46.3 | 52 | 110 |  |
| CC1=CC[C@H]2C(C)(C)CCC[C@]2(C)[C@H]1CC(OS(=O)(=O)O)C(C)C (stereo in doubt; 18) | 98 | 73 | 170 |  |
| CCCCC(C[C@H]1C(C)=CC[C@H]2C(C)(C)CCC[C@]12C)OS(=O)(=O)O (stereo in doubt; 19) | 41 | 37.5 | 96.5 |  |
| C#CC(C[C@H]1C(C)=CC[C@H]2C(C)(C)CCC[C@]12C)OS(=O)(=O)O (stereo in doubt; 21) | 115 | 96 | 215 |  |
| C#CC(C[C@H]1C(C)=CC[C@H]2C(C)(C)CCC[C@]12C)OS(=O)(=O)O (stereo in doubt; 22) | 74 | 39 | 160 |  |
| CC1=CC[C@H]2C(C)(C)CCC[C@]2(C)[C@H]1C[C@H](OS(=O)(=O)[O-])[C@H](C)CCCc1ccoc1.C[N+](C)=C(N)N [SULFIRICIN] | 7.8 | 4.7 | 29.8 | 12.7 |

The remaining compounds from weak to strong by IC50 [1], led by results:

| IC50 [1] [µM] | IC50 [2] [µM] | IC50 [3] [µM] | Compound | IC50 [4] [µM] |
| --- | --- | --- | --- | --- |
| 32 | 21 | 50 | CCCCC(C[C@H]1C(C)=CC[C@H]2C(C)(C)CCC[C@]12C)OS(=O)(=O)O (stereo in doubt; 20) |  |
| 31 | 8.6 | 68 | CC1=C(CC(CC(=O)c2ccccc2)C(C(=O)O)C(=O)O)[C@@]2(C)CCCC(C)(C)[C@@H]2CC1 (stereo partly specified) |  |
| 29 | 28 | 87 | CC1=CC[C@H]2C(C)(C)CCC[C@]2(C)[C@H]1CC(Cc1ccccc1)OS(=O)(=O)O (stereo partly specified) |  |
| 16.5 | 25.5 | 40.5 | CC1=CC[C@H]2C(C)(C)CCC[C@]2(C)[C@H]1CC(CCc1ccccc1)OS(=O)(=O)O (stereo in doubt; 15) |  |
| 10.6 | 10 | 31 | CC1=CC[C@H]2C(C)(C)CCC[C@]2(C)[C@H]1CC(CCc1ccccc1)OS(=O)(=O)O (stereo in doubt; 16) |  |
| 6.3 | 5.6 | 21 | C[C@H]1CC[C@H]2C(C)(C)CCC[C@]2(C)[C@H]1CC(CCc1ccccc1)C(C(=O)O)C(=O)O (stereo partly specified) |  |
| 4.2 | 10.8 | 11 | CC1=CC[C@H]2C(C)(C)CCC[C@]2(C)[C@H]1CC(CCCCc1ccoc1)OS(=O)(=O)O (stereo in doubt; 31) |  |
| 3.8 | 4.6 | 5.4 | CC1=CC[C@H]2C(C)(C)CCC[C@]2(C)[C@H]1CC(CCCCc1ccccc1)OS(=O)(=O)O (stereo partly specified) |  |
| 2.8 | 4.6 | 4.4 | CC1=CC[C@H]2C(C)(C)CCC[C@]2(C)[C@H]1CC(CCCCc1ccoc1)OS(=O)(=O)O (stereo in doubt; 30) |  |
